The NIST ThermoML archive (doi:10.1021/acs.jced.6b00526)
Numbers after ± are expanded uncertainties.

Assay: xn = mol fraction of the nth substance listed
Details: 100 kPa, Liquid; for mass density: Vibrating tube method; for viscosity: Falling or rolling sphere viscometry

Structure (SMILES): OCCO [1,2-ethanediol] + O
- mass density (288.15 K, x2 = 0.1037): 1114.7 ± 4.5 kg/m3
- mass density (288.15 K, x2 = 0.1593): 1113.6 ± 4.5 kg/m3
- mass density (288.15 K, x2 = 0.2189): 1111.9 ± 4.4 kg/m3
- mass density (288.15 K, x2 = 0.3165): 1108.3 ± 4.4 kg/m3
- mass density (288.15 K, x2 = 0.3496): 1106.8 ± 4.4 kg/m3
- mass density (288.15 K, x2 = 0.3994): 1104.4 ± 4.4 kg/m3
- mass density (288.15 K, x2 = 0.4449): 1101.8 ± 4.4 kg/m3
- mass density (288.15 K, x2 = 0.5061): 1098 ± 4.4 kg/m3
- mass density (288.15 K, x2 = 0.5563): 1094.5 ± 4.4 kg/m3
- mass density (288.15 K, x2 = 0.6055): 1090.6 ± 4.4 kg/m3
- mass density (288.15 K, x2 = 0.6518): 1085.7 ± 4.3 kg/m3
- mass density (288.15 K, x2 = 0.7001): 1079.8 ± 4.3 kg/m3
- mass density (288.15 K, x2 = 0.7482): 1072.6 ± 4.3 kg/m3
- mass density (288.15 K, x2 = 0.8015): 1063 ± 4.3 kg/m3
- mass density (288.15 K, x2 = 0.8444): 1052.6 ± 4.2 kg/m3
- mass density (288.15 K, x2 = 0.901): 1036.4 ± 4.1 kg/m3
- viscosity (293.15 K, x2 = 0): 21.13 ± 3.4 mPa·s
- viscosity (293.15 K, x2 = 0.1105): 17.58 ± 2.8 mPa·s
- viscosity (293.15 K, x2 = 0.2014): 14.95 ± 2.4 mPa·s
- viscosity (293.15 K, x2 = 0.3002): 12.4 ± 2 mPa·s
- viscosity (293.15 K, x2 = 0.4011): 10.05 ± 1.6 mPa·s
- viscosity (293.15 K, x2 = 0.4969): 8.185 ± 1.3 mPa·s
- viscosity (293.15 K, x2 = 0.6022): 6.297 ± 1 mPa·s
- viscosity (293.15 K, x2 = 0.6995): 4.584 ± 0.73 mPa·s
- viscosity (293.15 K, x2 = 0.7994): 3.122 ± 0.5 mPa·s
- viscosity (293.15 K, x2 = 0.8997): 1.918 ± 0.31 mPa·s
- mass density (293.15 K, x2 = 0): 1113.3 ± 4.5 kg/m3
- mass density (293.15 K, x2 = 0.1037): 1111.1 ± 4.4 kg/m3
- mass density (293.15 K, x2 = 0.2189): 1108.3 ± 4.4 kg/m3
- mass density (293.15 K, x2 = 0.2669): 1106.8 ± 4.4 kg/m3
- mass density (293.15 K, x2 = 0.3165): 1104.8 ± 4.4 kg/m3
- mass density (293.15 K, x2 = 0.3994): 1101.1 ± 4.4 kg/m3
- mass density (293.15 K, x2 = 0.4449): 1098.5 ± 4.4 kg/m3
- mass density (293.15 K, x2 = 0.5061): 1094.8 ± 4.4 kg/m3
- mass density (293.15 K, x2 = 0.5563): 1091.4 ± 4.4 kg/m3
- mass density (293.15 K, x2 = 0.6055): 1087.4 ± 4.4 kg/m3
- mass density (293.15 K, x2 = 0.6518): 1082.6 ± 4.3 kg/m3
- mass density (293.15 K, x2 = 0.7001): 1076.8 ± 4.3 kg/m3
- mass density (293.15 K, x2 = 0.7482): 1069.7 ± 4.3 kg/m3
- mass density (293.15 K, x2 = 0.8015): 1060.1 ± 4.2 kg/m3
- mass density (293.15 K, x2 = 0.8444): 1050.2 ± 4.2 kg/m3
- mass density (293.15 K, x2 = 0.901): 1034.6 ± 4.1 kg/m3
- viscosity (298.15 K, x2 = 0): 17.24 ± 2.8 mPa·s
- viscosity (298.15 K, x2 = 0.1105): 14.33 ± 2.3 mPa·s
- viscosity (298.15 K, x2 = 0.2014): 12.19 ± 2 mPa·s
- viscosity (298.15 K, x2 = 0.3002): 10.18 ± 1.6 mPa·s
- viscosity (298.15 K, x2 = 0.4011): 8.31 ± 1.3 mPa·s
- viscosity (298.15 K, x2 = 0.4969): 6.791 ± 1.1 mPa·s
- viscosity (298.15 K, x2 = 0.6022): 5.208 ± 0.83 mPa·s
- viscosity (298.15 K, x2 = 0.6995): 3.884 ± 0.62 mPa·s
- viscosity (298.15 K, x2 = 0.7994): 2.682 ± 0.43 mPa·s
- viscosity (298.15 K, x2 = 0.8997): 1.664 ± 0.27 mPa·s
- mass density (298.15 K, x2 = 0.1037): 1108 ± 4.4 kg/m3
- mass density (298.15 K, x2 = 0.1593): 1106.9 ± 4.4 kg/m3
- mass density (298.15 K, x2 = 0.2189): 1105.2 ± 4.4 kg/m3
- mass density (298.15 K, x2 = 0.2669): 1103.6 ± 4.4 kg/m3
- mass density (298.15 K, x2 = 0.3165): 1101.7 ± 4.4 kg/m3
- mass density (298.15 K, x2 = 0.3496): 1100.3 ± 4.4 kg/m3
- mass density (298.15 K, x2 = 0.3994): 1098 ± 4.4 kg/m3
- mass density (298.15 K, x2 = 0.5061): 1091.8 ± 4.4 kg/m3
- mass density (298.15 K, x2 = 0.5563): 1088.4 ± 4.4 kg/m3
- mass density (298.15 K, x2 = 0.6055): 1084.5 ± 4.3 kg/m3
- mass density (298.15 K, x2 = 0.6518): 1079.7 ± 4.3 kg/m3
- mass density (298.15 K, x2 = 0.7001): 1073.7 ± 4.3 kg/m3
- mass density (298.15 K, x2 = 0.7482): 1066.7 ± 4.3 kg/m3
- mass density (298.15 K, x2 = 0.8015): 1057.4 ± 4.2 kg/m3
- mass density (298.15 K, x2 = 0.8444): 1048 ± 4.2 kg/m3
- mass density (298.15 K, x2 = 0.901): 1032.8 ± 4.1 kg/m3
- viscosity (303.15 K, x2 = 0): 14.23 ± 2.3 mPa·s
- viscosity (303.15 K, x2 = 0.1105): 11.86 ± 1.9 mPa·s
- viscosity (303.15 K, x2 = 0.2014): 10.14 ± 1.6 mPa·s
- viscosity (303.15 K, x2 = 0.3002): 8.45 ± 1.4 mPa·s
- viscosity (303.15 K, x2 = 0.4011): 6.968 ± 1.1 mPa·s
- viscosity (303.15 K, x2 = 0.4969): 5.653 ± 0.91 mPa·s
- viscosity (303.15 K, x2 = 0.6022): 4.396 ± 0.7 mPa·s
- viscosity (303.15 K, x2 = 0.6995): 3.345 ± 0.54 mPa·s
- viscosity (303.15 K, x2 = 0.7994): 2.328 ± 0.37 mPa·s
- viscosity (303.15 K, x2 = 0.8997): 1.446 ± 0.23 mPa·s
- mass density (303.15 K, x2 = 0): 1106.8 ± 4.4 kg/m3
- mass density (303.15 K, x2 = 0.1037): 1104.4 ± 4.4 kg/m3
- mass density (303.15 K, x2 = 0.2189): 1101.6 ± 4.4 kg/m3
- mass density (303.15 K, x2 = 0.2669): 1100.1 ± 4.4 kg/m3
- mass density (303.15 K, x2 = 0.3165): 1098.2 ± 4.4 kg/m3
- mass density (303.15 K, x2 = 0.3496): 1096.8 ± 4.4 kg/m3
- mass density (303.15 K, x2 = 0.3994): 1094.4 ± 4.4 kg/m3
- mass density (303.15 K, x2 = 0.4449): 1092.2 ± 4.4 kg/m3
- mass density (303.15 K, x2 = 0.5061): 1088.5 ± 4.4 kg/m3
- mass density (303.15 K, x2 = 0.5563): 1085.1 ± 4.3 kg/m3
- mass density (303.15 K, x2 = 0.6055): 1081.3 ± 4.3 kg/m3
- mass density (303.15 K, x2 = 0.6518): 1076.5 ± 4.3 kg/m3
- mass density (303.15 K, x2 = 0.7001): 1070.6 ± 4.3 kg/m3
- mass density (303.15 K, x2 = 0.7482): 1063.7 ± 4.3 kg/m3
- mass density (303.15 K, x2 = 0.8015): 1054.5 ± 4.2 kg/m3
- mass density (303.15 K, x2 = 0.8444): 1045.5 ± 4.2 kg/m3
- mass density (303.15 K, x2 = 0.901): 1030.7 ± 4.1 kg/m3
- mass density (308.15 K, x2 = 0.1037): 1100.5 ± 4.4 kg/m3
- mass density (308.15 K, x2 = 0.1593): 1099.3 ± 4.4 kg/m3
- mass density (308.15 K, x2 = 0.2189): 1097.6 ± 4.4 kg/m3
- mass density (308.15 K, x2 = 0.3165): 1094.2 ± 4.4 kg/m3
- mass density (308.15 K, x2 = 0.3496): 1092.9 ± 4.4 kg/m3
- mass density (308.15 K, x2 = 0.3994): 1090.6 ± 4.4 kg/m3
- mass density (308.15 K, x2 = 0.4449): 1088.4 ± 4.4 kg/m3
- mass density (308.15 K, x2 = 0.5061): 1084.7 ± 4.3 kg/m3
- mass density (308.15 K, x2 = 0.5563): 1081.3 ± 4.3 kg/m3
- mass density (308.15 K, x2 = 0.6055): 1077.6 ± 4.3 kg/m3
- mass density (308.15 K, x2 = 0.6518): 1072.9 ± 4.3 kg/m3
- mass density (308.15 K, x2 = 0.7001): 1067.3 ± 4.3 kg/m3
- mass density (308.15 K, x2 = 0.7482): 1060.6 ± 4.2 kg/m3
- mass density (308.15 K, x2 = 0.8015): 1051.5 ± 4.2 kg/m3
- mass density (308.15 K, x2 = 0.8444): 1042.6 ± 4.2 kg/m3
- mass density (308.15 K, x2 = 0.901): 1028 ± 4.1 kg/m3
- mass density (313.15 K, x2 = 0): 1099.1 ± 4.4 kg/m3
- mass density (313.15 K, x2 = 0.1037): 1096.7 ± 4.4 kg/m3
- mass density (313.15 K, x2 = 0.1593): 1095.4 ± 4.4 kg/m3
- mass density (313.15 K, x2 = 0.2189): 1093.7 ± 4.4 kg/m3
- mass density (313.15 K, x2 = 0.2669): 1092.1 ± 4.4 kg/m3
- mass density (313.15 K, x2 = 0.3165): 1090.3 ± 4.4 kg/m3
- mass density (313.15 K, x2 = 0.3994): 1086.9 ± 4.3 kg/m3
- mass density (313.15 K, x2 = 0.4449): 1084.6 ± 4.3 kg/m3
- mass density (313.15 K, x2 = 0.5061): 1081.1 ± 4.3 kg/m3
- mass density (313.15 K, x2 = 0.5563): 1077.8 ± 4.3 kg/m3
- mass density (313.15 K, x2 = 0.6055): 1074 ± 4.3 kg/m3
- mass density (313.15 K, x2 = 0.6518): 1069.5 ± 4.3 kg/m3
- mass density (313.15 K, x2 = 0.7001): 1064 ± 4.3 kg/m3
- mass density (313.15 K, x2 = 0.7482): 1057.4 ± 4.2 kg/m3
- mass density (313.15 K, x2 = 0.8015): 1048.4 ± 4.2 kg/m3
- mass density (313.15 K, x2 = 0.8444): 1039.6 ± 4.2 kg/m3
- mass density (313.15 K, x2 = 0.901): 1025.4 ± 4.1 kg/m3
- mass density (318.15 K, x2 = 0.1037): 1093.8 ± 4.4 kg/m3
- mass density (318.15 K, x2 = 0.1593): 1092.4 ± 4.4 kg/m3
- mass density (318.15 K, x2 = 0.2189): 1090.7 ± 4.4 kg/m3
- mass density (318.15 K, x2 = 0.3165): 1087.3 ± 4.4 kg/m3
- mass density (318.15 K, x2 = 0.3496): 1086 ± 4.3 kg/m3
- mass density (318.15 K, x2 = 0.3994): 1083.9 ± 4.3 kg/m3
- mass density (318.15 K, x2 = 0.4449): 1081.6 ± 4.3 kg/m3
- mass density (318.15 K, x2 = 0.5061): 1078.1 ± 4.3 kg/m3
- mass density (318.15 K, x2 = 0.5563): 1074.6 ± 4.3 kg/m3
- mass density (318.15 K, x2 = 0.6055): 1071.1 ± 4.3 kg/m3
- mass density (318.15 K, x2 = 0.6518): 1066.3 ± 4.3 kg/m3
- mass density (318.15 K, x2 = 0.7001): 1060.7 ± 4.2 kg/m3
- mass density (318.15 K, x2 = 0.7482): 1054.3 ± 4.2 kg/m3
- mass density (318.15 K, x2 = 0.8015): 1045.6 ± 4.2 kg/m3
- mass density (318.15 K, x2 = 0.8444): 1037.1 ± 4.2 kg/m3
- mass density (318.15 K, x2 = 0.901): 1023.5 ± 4.1 kg/m3
